Assay results reported in PubChem BioAssay (NCI).
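Growth conditions: 96-well plates. Treatment: test compound, 48 hours, 5 concentrations. Analysis: linear interpolation between bracketing concentrations; unreached endpoints set to highest concentration. GI50: concentration for 50% inhibition of growth. TGI denotes the concentration required for complete inhibition of growth.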

Tests used:
Experiment in all cases: NCI-60 cell line screen, 48 h
[1] = tested on: 786-0 renal
[2] = tested on: A498 renal
[3] = tested on: A549 NSCLC
[4] = tested on: ACHN renal
[5] = tested on: BT-549 breast
[6] = tested on: CAKI-1 renal
[7] = tested on: CCRF-CEM leukemia
[8] = tested on: COLO 205 colon
[9] = tested on: DU-145 prostate
[10] = tested on: EKVX NSCLC
[11] = tested on: HCC-2998 colon
[12] = tested on: HCT-116 colon
[13] = tested on: HCT-15 colon
[14] = tested on: HL-60(TB) leukemia
[15] = tested on: HOP-62 NSCLC
[16] = tested on: HOP-92 NSCLC
[17] = tested on: HT29 colon
[18] = tested on: IGROV1 ovarian
[19] = tested on: K-562 leukemia
[20] = tested on: KM12 colon
[21] = tested on: LOX IMVI melanoma
[22] = tested on: M14 melanoma
[23] = tested on: MALME-3M melanoma
[24] = tested on: MCF7 breast
[25] = tested on: MDA-MB-231 breast
[26] = tested on: MDA-MB-435
[27] = tested on: MOLT-4 leukemia
[28] = tested on: NCI-H226 lung
[29] = tested on: NCI-H23 lung
[30] = tested on: NCI-H460 lung
[31] = tested on: NCI-H522 lung
[32] = tested on: NCI/ADR-RES ovarian
[33] = tested on: OVCAR-3 ovarian
[34] = tested on: OVCAR-4 ovarian
[35] = tested on: OVCAR-5 ovarian
[36] = tested on: OVCAR-8 ovarian
[37] = tested on: PC-3 prostate
[38] = tested on: RPMI-8226 leukemia
[39] = tested on: RXF 393 renal
[40] = tested on: SF-268 CNS
[41] = tested on: SF-295 CNS
[42] = tested on: SF-539 CNS
[43] = tested on: SK-MEL-2 melanoma
[44] = tested on: SK-MEL-28 melanoma
[45] = tested on: SK-MEL-5 melanoma
[46] = tested on: SK-OV-3 ovarian
[47] = tested on: SN12C renal
[48] = tested on: SNB-19 CNS
[49] = tested on: SNB-75 CNS
[50] = tested on: SR leukemia
[51] = tested on: SW-620 colon
[52] = tested on: T-47D breast
[53] = tested on: U251 CNS
[54] = tested on: UACC-257 melanoma
[55] = tested on: UACC-62 melanoma
[56] = tested on: UO-31 renal
[57] = tested on: HS 578T breast
[58] = tested on: TK-10 renal

Clc1ccc(Cn2c(CN3CCCC3)nc3ccccc32)cc1 gave a GI50 [1] of 16.8 µM, a TGI [1] of 32.9 µM and a GI50 [2] of 11.3 µM. For the same molecule, the TGI [2] was 31.3 µM, the GI50 [3] was 26.9 µM and the TGI [3] was over 100 µM. It also gave a GI50 [4] of 31.1 µM, a TGI [4] of over 100 µM and a GI50 [5] of 18.1 µM. The TGI [5] was 38.8 µM, the GI50 [6] was 14.7 µM and the TGI [6] was 54.8 µM. The GI50 [7] was 27 µM, the TGI [7] was over 100 µM and the GI50 [8] was 17.6 µM. The TGI [8] was 33.4 µM, the GI50 [9] was 32.9 µM and the TGI [9] was over 100 µM. For the same molecule, the GI50 [10] was 17.5 µM, the TGI [10] was 67.7 µM and the GI50 [11] was 21.6 µM. It also gave a TGI [11] of 54 µM, a GI50 [12] of 11 µM and a TGI [12] of 24.7 µM. The GI50 [13] was 24.7 µM, the TGI [13] was 87.7 µM and the GI50 [14] was 23.8 µM. The TGI [14] was 65.2 µM, the GI50 [15] was 20.8 µM and the TGI [15] was 61.5 µM. It also gave a GI50 [16] of 6.03 µM, a TGI [16] of 29.5 µM and a GI50 [17] of 15.5 µM. The TGI [17] was 38.4 µM, the GI50 [18] was 23.3 µM and the TGI [18] was over 100 µM. It also gave a GI50 [19] of 19.4 µM, a TGI [19] of over 100 µM and a GI50 [20] of 19.5 µM. The TGI [20] was 53.4 µM, the GI50 [21] was 17 µM and the TGI [21] was 34.1 µM. For the same molecule, the GI50 [22] was 17.1 µM, the TGI [22] was 34 µM and the GI50 [23] was 14.9 µM. It also gave a TGI [23] of 33.4 µM, a GI50 [24] of 17 µM and a TGI [24] of 32.6 µM. It also gave a GI50 [25] of 18.8 µM, a TGI [25] of 41.8 µM and a GI50 [26] of 17.1 µM. The TGI [26] was 41.2 µM, the GI50 [27] was 28.3 µM and the TGI [27] was 95.9 µM. For the same molecule, the GI50 [28] was 14.8 µM, the TGI [28] was 41.8 µM and the GI50 [29] was 19 µM. The TGI [29] was 59.9 µM, the GI50 [30] was 14.5 µM and the TGI [30] was 34.4 µM. For the same molecule, the GI50 [31] was 16.3 µM, the TGI [31] was 33.7 µM and the GI50 [32] was 24.3 µM. The TGI [32] was over 100 µM, the GI50 [33] was 18.4 µM and the TGI [33] was 47.7 µM. It also gave a GI50 [34] of 21.9 µM, a TGI [34] of 93.3 µM and a GI50 [35] of 25.3 µM. For the same molecule, the TGI [35] was 87.8 µM, the GI50 [36] was 29.7 µM and the TGI [36] was over 100 µM. The GI50 [37] was 19.6 µM, the TGI [37] was 58.3 µM and the GI50 [38] was 16.4 µM. It also gave a TGI [38] of 41.7 µM, a GI50 [39] of 14.1 µM and a TGI [39] of 30.2 µM. For the same molecule, the GI50 [40] was 30.8 µM, the TGI [40] was over 100 µM and the GI50 [41] was 14.3 µM. It also gave a TGI [41] of 31.4 µM, a GI50 [42] of 18 µM and a TGI [42] of 37.1 µM. For the same molecule, the GI50 [43] was 17.8 µM, the TGI [43] was 34.6 µM and the GI50 [44] was 24.6 µM. The TGI [44] was 65.5 µM, the GI50 [45] was 13.3 µM and the TGI [45] was 26.2 µM. The GI50 [46] was 20 µM, the TGI [46] was 48.8 µM and the GI50 [47] was 30.1 µM. The TGI [47] was over 100 µM, the GI50 [48] was 22.1 µM and the TGI [48] was 57.1 µM. It also gave a GI50 [49] of 21.5 µM, a TGI [49] of 82.9 µM and a GI50 [50] of 23.5 µM. The TGI [50] was 75.4 µM, the GI50 [51] was 14.8 µM and the TGI [51] was 33.3 µM. For the same molecule, the GI50 [52] was 19.7 µM, the TGI [52] was 83.5 µM and the GI50 [53] was 15.2 µM. The TGI [53] was 31.4 µM, the GI50 [54] was 20 µM and the TGI [54] was 55 µM. For the same molecule, the GI50 [55] was 17.4 µM, the TGI [55] was 47.3 µM and the GI50 [56] was 12.4 µM. For the same molecule, the TGI [56] was 36.5 µM.
Molecule c1ccc(CC(Cc2ccccc2)C2=NCCCN2)cc1 has a GI50 [1] of 4.26 µM, a TGI [1] of over 100 µM and a GI50 [2] of 1.84 µM. It also gave a TGI [2] of 33.2 µM, a GI50 [3] of 3.42 µM and a TGI [3] of over 100 µM. For the same molecule, the GI50 [4] was 7.95 µM, the TGI [4] was over 100 µM and the GI50 [5] was 3.77 µM. The TGI [5] was 70.9 µM, the GI50 [6] was 6.39 µM and the TGI [6] was over 100 µM. The GI50 [7] was 3.12 µM, the TGI [7] was 93.3 µM and the GI50 [8] was 3.49 µM. It also gave a TGI [8] of 12.4 µM, a GI50 [9] of 3.36 µM and a TGI [9] of 9.75 µM. It also gave a GI50 [10] of 6.96 µM, a TGI [10] of over 100 µM and a GI50 [11] of 3.08 µM. The TGI [11] was 9.35 µM, the GI50 [12] was 3.71 µM and the TGI [12] was 17.3 µM. For the same molecule, the GI50 [13] was 3.44 µM, the TGI [13] was over 100 µM and the GI50 [14] was 2.38 µM. The TGI [14] was 6.41 µM, the GI50 [15] was 4.83 µM and the TGI [15] was over 100 µM. The GI50 [16] was 4.52 µM, the TGI [16] was 64.6 µM and the GI50 [57] was 4.07 µM. The TGI [57] was over 100 µM, the GI50 [17] was 3.48 µM and the TGI [17] was over 100 µM. The GI50 [18] was 4.2 µM, the TGI [18] was over 100 µM and the GI50 [19] was 4.04 µM. For the same molecule, the TGI [19] was over 100 µM, the GI50 [20] was 3.26 µM and the TGI [20] was over 100 µM. The GI50 [21] was 3.71 µM, the TGI [21] was 23.6 µM and the GI50 [22] was 3.17 µM. The TGI [22] was over 100 µM, the GI50 [24] was 3.57 µM and the TGI [24] was over 100 µM. For the same molecule, the GI50 [25] was 5.37 µM, the TGI [25] was over 100 µM and the GI50 [27] was 3.56 µM. It also gave a TGI [27] of 23.2 µM, a GI50 [28] of 2.48 µM and a TGI [28] of 7.47 µM. The GI50 [29] was 3.48 µM, the TGI [29] was over 100 µM and the GI50 [30] was 3.36 µM. For the same molecule, the TGI [30] was 21.9 µM, the GI50 [32] was 2.99 µM and the TGI [32] was over 100 µM. The GI50 [33] was 2.42 µM, the TGI [33] was 4.97 µM and the GI50 [34] was 3.93 µM. The TGI [34] was over 100 µM, the GI50 [35] was 5.95 µM and the TGI [35] was over 100 µM. For the same molecule, the GI50 [36] was 3.21 µM, the TGI [36] was over 100 µM and the GI50 [37] was 3.87 µM. The TGI [37] was over 100 µM, the GI50 [38] was 3.62 µM and the TGI [38] was 42.3 µM. The GI50 [39] was 2.82 µM, the TGI [39] was over 100 µM and the GI50 [40] was 5.25 µM. The TGI [40] was over 100 µM, the GI50 [41] was 3.32 µM and the TGI [41] was over 100 µM. The GI50 [42] was 3.37 µM, the TGI [42] was over 100 µM and the GI50 [43] was 2.66 µM. For the same molecule, the TGI [43] was 7.91 µM, the GI50 [44] was 6.4 µM and the TGI [44] was over 100 µM. It also gave a GI50 [45] of 2.73 µM, a TGI [45] of 9.52 µM and a GI50 [46] of 2.1 µM. The TGI [46] was 6.44 µM, the GI50 [47] was 4.18 µM and the TGI [47] was over 100 µM. It also gave a GI50 [48] of 3.49 µM, a TGI [48] of over 100 µM and a GI50 [49] of 7.8 µM. It also gave a TGI [49] of over 100 µM, a GI50 [50] of 3.78 µM and a TGI [50] of over 100 µM. It also gave a GI50 [51] of 3.94 µM, a TGI [51] of over 100 µM and a GI50 [52] of 30.8 µM. It also gave a TGI [52] of over 100 µM, a GI50 [58] of 7.57 µM and a TGI [58] of over 100 µM. For the same molecule, the GI50 [53] was 3.38 µM, the TGI [53] was over 100 µM and the GI50 [54] was 17 µM. The TGI [54] was over 100 µM, the GI50 [55] was 4.22 µM and the TGI [55] was over 100 µM. For the same molecule, the GI50 [56] was 7.83 µM and the TGI [56] was over 100 µM.
